# Reference: PMC2915651 (2010)
# Legend:
# [1] = test system: [d(TGGGGT)]4 (DNA, G4) TGGGGT; assay: ITC; conditions: 70 mM KCl; 20 mM phosphate, 0.1 mM EDTA, pH 7.0, 25 °C; identical sites, n = 2.0
# [2] = test system: d(CGCGAATTCGCG)2 (DNA, duplex) CGCGAATTCGCG; assay: ITC; conditions: 70 mM KCl; 20 mM phosphate, 0.1 mM EDTA, pH 7.0, 25 °C; no resolvable isotherm; ligand 600–700 μM into 30 μM DNA
# [3] = test system: d(CGCGAATTCGCG)2 (DNA, duplex) CGCGAATTCGCG; assay: 1H NMR titration; conditions: 70 mM KCl; 10 mM phosphate, EDTA, pH 7.0, 25 °C; 1 mM DNA; shifts at most 0.03 ppm at 2:1
# [4] = test system: [d(TGGGGT)]4 (DNA, G4) TGGGGT; assay: 1H NMR titration; conditions: 70 mM KCl; 10 mM phosphate, EDTA, pH 7.0, 25 °C; 2 mM quadruplex; fast exchange
K b [1],binding [2],binding [3],binding [4],Structure (SMILES)
1.2 ± 0.1 × 10^6 M^-1,,,,Cn1cc(NC(=O)c2cc(NC(=O)CN=C(N)N)cn2C)cc1C(=O)NCCC(=N)N
1.9 ± 0.2 × 10^6 M^-1,weak,weak,yes,Cn1cc(NC(=O)c2cc(NC(=O)c3cc(N=CN)cn3C)cn2C)cc1C(=O)NCCC(=N)N
